Patent US10280159B2 (AbbVie Deutschland GmbH & Co. KG, priority 2015, dated 2019)

Legend:
Type in all cases: cell-based
human S1PR1 = molecular target: T1, human S1PR1 (Homo sapiens, UniProt P21453); assay: Intracellular Ca2+ release (FLIPR) agonist potency, S1P1; conditions: recombinant CHO-K1 cells expressing human S1PR1, aequorin, Gq/i5; Calcium 5 FLIPR; read-out: S1P1 EC50
T1 construct: host or cells: CHO-K1
Outline: (§1)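 Recombinant CHO-K1 cells carrying the human receptor together with aequorin and the chimeric G protein Gq/i5 are exposed to test agonist, and Ca2+ mobilization is recorded by fluorometric imaging plate reader. Potency is derived from curve fitting relative to phospho-fingolimod.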

human S1PR5 = molecular target: T2, human S1PR5 (Homo sapiens, UniProt Q9H228); assay: Intracellular Ca2+ release (FLIPR) agonist potency, S1P5; conditions: recombinant CHO-K1 cells expressing human S1PR5, aequorin, Gq/i5; Calcium 5 FLIPR; read-out: S1P5 EC50 range
T2 construct: host or cells: CHO-K1
Outline: as §1

human S1PR4 = molecular target: T3, human S1PR4 (Homo sapiens, UniProt O95977); assay: Intracellular Ca2+ release (FLIPR) agonist potency, S1P4; conditions: recombinant CHO-K1 cells expressing human S1PR4, aequorin, Gq/i5; Calcium 5 FLIPR; read-out: S1P4 EC50
T3 construct: host or cells: CHO-K1
T3 sequence (O95977 1-384): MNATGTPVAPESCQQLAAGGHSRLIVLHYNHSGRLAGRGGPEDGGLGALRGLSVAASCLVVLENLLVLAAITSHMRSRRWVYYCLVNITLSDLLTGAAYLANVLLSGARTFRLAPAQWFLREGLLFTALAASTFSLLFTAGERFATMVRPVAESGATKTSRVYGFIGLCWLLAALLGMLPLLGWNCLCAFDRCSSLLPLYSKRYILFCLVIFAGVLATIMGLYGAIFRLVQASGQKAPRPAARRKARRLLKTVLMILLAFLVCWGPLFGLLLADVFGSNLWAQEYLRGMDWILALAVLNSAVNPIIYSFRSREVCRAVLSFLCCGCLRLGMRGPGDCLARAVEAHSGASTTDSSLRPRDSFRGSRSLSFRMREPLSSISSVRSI
Outline: as §1

T2 sequence (Q9H228 whole entry): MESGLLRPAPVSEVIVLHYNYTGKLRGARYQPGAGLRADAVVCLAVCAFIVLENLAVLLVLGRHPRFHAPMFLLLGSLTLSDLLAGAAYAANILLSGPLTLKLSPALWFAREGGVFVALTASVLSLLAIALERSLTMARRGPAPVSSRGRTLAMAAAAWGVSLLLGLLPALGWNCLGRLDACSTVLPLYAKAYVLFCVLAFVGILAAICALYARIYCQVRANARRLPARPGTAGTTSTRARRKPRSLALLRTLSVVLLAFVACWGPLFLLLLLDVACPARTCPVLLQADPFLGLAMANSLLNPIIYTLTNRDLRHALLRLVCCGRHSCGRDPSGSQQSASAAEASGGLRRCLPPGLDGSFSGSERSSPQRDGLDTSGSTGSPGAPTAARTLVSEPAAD
T1 sequence (P21453 whole entry): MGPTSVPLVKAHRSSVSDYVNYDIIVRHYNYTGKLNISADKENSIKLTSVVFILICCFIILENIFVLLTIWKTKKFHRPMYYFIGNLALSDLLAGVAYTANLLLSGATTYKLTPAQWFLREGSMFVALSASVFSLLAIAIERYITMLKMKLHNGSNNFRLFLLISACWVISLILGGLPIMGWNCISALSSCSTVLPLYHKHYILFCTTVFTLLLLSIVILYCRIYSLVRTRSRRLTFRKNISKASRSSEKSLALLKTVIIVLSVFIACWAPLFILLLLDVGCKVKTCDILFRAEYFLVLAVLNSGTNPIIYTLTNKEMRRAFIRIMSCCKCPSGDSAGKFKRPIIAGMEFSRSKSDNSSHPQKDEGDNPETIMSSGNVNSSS

| Compound | EC50 (human S1PR1) [µM] | EC50 (human S1PR5) [µM] | EC50 (human S1PR4) [µM] |
| --- | --- | --- | --- |
| COc1ccc(F)cc1COc1ccc2c(c1)CCC(OCC(=O)O)C2 (stereo not drawn) [Compound 166, 2-[6-[(5-fluoro-2-methoxy-phenyl)methoxy]tetralin-2-yl]oxyacetic acid] | > 1 | 0.1 to 1 | > 1 |
| O=C(O)COC1CCc2cc(OCc3c(F)cccc3Cl)ccc2C1 (stereo not drawn) [Compound 169, 2-[6-[(2-chloro-6-fluoro-phenyl)methoxy]tetralin-2-yl]oxyacetic acid] | > 1 | 0.1 to 1 | > 1 |
| COc1ccccc1COc1ccc2c(c1)CCC(OCC(=O)O)C2 (stereo not drawn) [Compound 170, 2-[6-[(2-methoxyphenyl)methoxy]tetralin-2-yl]oxyacetic acid] | > 1 | 1 to 10 | > 1 |
| O=C(O)COC1CCc2cc(OCc3cc(F)ccc3Cl)ccc2C1 (stereo not drawn) [Compound 171, 2-[6-[(2-chloro-5-fluoro-phenyl)methoxy]tetralin-2-yl]oxyacetic acid] | > 1 | 1 to 10 | > 1 |
| O=C(O)COC1CCc2cc(OCc3cc(C(F)(F)F)ccc3F)ccc2C1 (stereo not drawn) [Compound 172, 2-[6-[[2-fluoro-5-(trifluoromethyl)phenyl]methoxy]tetralin-2-yl]oxyacetic acid] | > 1 | 1 to 10 | > 1 |
| O=C(O)COC1CCc2cc(OCc3cc(Cl)ccc3F)ccc2C1 (stereo not drawn) [Compound 174, 2-[6-[(5-chloro-2-fluoro-phenyl)methoxy]tetralin-2-yl]oxyacetic acid] | > 1 | 1 to 10 | > 1 |
| COc1ccc(Cl)cc1COc1ccc2c(c1)CCC(OCC(=O)O)C2 (stereo not drawn) [Compound 176, 2-[6-[(5-chloro-2-methoxy-phenyl)methoxy]tetralin-2-yl]oxyacetic acid] | > 1 | 1 to 10 | > 1 |
| Cc1ccccc1COc1ccc2c(c1)CCC(OCCC(=O)O)C2 (stereo not drawn) [Compound 179, 3-[6-(o-tolylmethoxy)tetralin-2-yl]oxypropanoic acid] | > 1 | 1 to 10 | > 1 |
| O=C(O)CCOC1CCc2cc(OCc3cccc(F)c3)ccc2C1 (stereo not drawn) [Compound 180, 3-[6-[(3-fluorophenyl)methoxy]tetralin-2-yl]oxypropanoic acid] | > 1 | 1 to 10 | > 1 |
| O=C(O)CCOC1CCc2cc(OCc3ccc(Cl)c(Cl)c3)ccc2C1 (stereo not drawn) [Compound 181, 3-[6-[(3,4-dichlorophenyl)methoxy]tetralin-2-yl]oxypropanoic acid] | > 1 | 1 to 10 | > 1 |
| CSc1ccc(COc2ccc3c(c2)CCC(OCCC(=O)O)C3)cc1 (stereo not drawn) [Compound 182, 3-[6-[(4-methylsulfanylphenyl)methoxy]tetralin-2-yl]oxypropanoic acid] | > 1 | 1 to 10 | > 1 |
| O=C(O)CCOC1CCc2cc(OCc3ccc(C(F)(F)F)cc3)ccc2C1 (stereo not drawn) [Compound 183, 3-[6-[[4-(trifluoromethyl)phenyl]methoxy]tetralin-2-yl]oxypropanoic acid] | > 1 | 1 to 10 | > 1 |
| O=C(O)CCOC1CCc2cc(OCc3cccc(OC(F)(F)F)c3)ccc2C1 (stereo not drawn) [Compound 184, 3-[6-[[3-(trifluoromethoxy)phenyl]methoxy]tetralin-2-yl]oxypropanoic acid] | > 1 | 1 to 10 | > 1 |
| O=C(O)CCOC1CCc2cc(OCc3ccc(OC(F)(F)F)cc3)ccc2C1 (stereo not drawn) [Compound 185, 3-[6-[[4-(trifluoromethoxy)phenyl]methoxy]tetralin-2-yl]oxypropanoic acid] | > 1 | 1 to 10 | > 1 |
| O=C(O)CCOC1CCc2cc(OCc3cccc(F)c3F)ccc2C1 (stereo not drawn) [Compound 186, 3-[6-[(2,3-difluorophenyl)methoxy]tetralin-2-yl]oxypropanoic acid] | > 1 | 1 to 10 | > 1 |
| O=C(O)CCOC1CCc2cc(OCc3ccccc3Cl)ccc2C1 (stereo not drawn) [Compound 188, 3-[6-[(2-chlorophenyl)methoxy]tetralin-2-yl]oxypropanoic acid] | > 1 | 1 to 10 | > 1 |
| O=C(O)CCOC1CCc2cc(OCc3cccc(Cl)c3Cl)ccc2C1 (stereo not drawn) [Compound 189, 3-[6-[(2,3-dichlorophenyl)methoxy]tetralin-2-yl]oxypropanoic acid] | > 1 | 1 to 10 | > 1 |
| O=C(O)CCOC1CCc2cc(OCc3ccccc3OC(F)(F)F)ccc2C1 (stereo not drawn) [Compound 190, 3-[6-[[2-(trifluoromethoxy)phenyl]methoxy]tetralin-2-yl]oxypropanoic acid] | > 1 | 1 to 10 | > 1 |
| O=C(O)CCOC1CCc2cc(OCc3ccc(Cl)cc3)ccc2C1 (stereo not drawn) [Compound 191, 3-[6-[(4-chlorophenyl)methoxy]tetralin-2-yl]oxypropanoic acid] | > 1 | 1 to 10 | > 1 |
| CC(C)(C)c1ccc(COc2ccc3c(c2)CCC(OCCC(=O)O)C3)cc1 (stereo not drawn) [Compound 192, 3-[6-[(4-tert-butylphenyl)methoxy]tetralin-2-yl]oxypropanoic acid] | > 1 | 1 to 10 | > 1 |

Second part, the compound after the results:

| EC50 (human S1PR1) [µM] | EC50 (human S1PR5) [µM] | EC50 (human S1PR4) [µM] | Compound |
| --- | --- | --- | --- |
| > 1 | 1 to 10 | > 1 | O=C(O)CCOC1CCc2cc(OCc3ccc(F)cc3)ccc2C1 (stereo not drawn) [Compound 194, 3-[6-[(4-fluorophenyl)methoxy]tetralin-2-yl]oxypropanoic acid] |
| > 1 | 1 to 10 | > 1 | Cc1ccc(C(F)(F)F)c(COc2ccc3c(c2)CCC(OCC(=O)O)C3)c1 (stereo not drawn) [Compound 195, 2-[6-[[5-methyl-2-(trifluoromethyl)phenyl]methoxy]tetralin-2-yl]oxyacetic acid] |
| > 1 | 0.1 to 1 | > 1 | O=C(O)COC1CCc2cc(OCc3ccccc3C(F)(F)F)ccc2C1 (stereo not drawn) [Compound 196, 2-[6-[[2-(trifluoromethyl)phenyl]methoxy]tetralin-2-yl]oxyacetic acid] |
| > 1 | 1 to 10 | > 1 | O=C(O)COC1CCc2cc(OCc3cccc(F)c3)ccc2C1 (stereo not drawn) [Compound 198, 2-[6-[(3-fluorophenyl)methoxy]tetralin-2-yl]oxyacetic acid] |
| > 1 | 1 to 10 | > 1 | O=C(O)COC1CCc2cc(OCc3ccc(Cl)c(Cl)c3)ccc2C1 (stereo not drawn) [Compound 199, 2-[6-[(3,4-dichlorophenyl)methoxy]tetralin-2-yl]oxyacetic acid] |
| > 1 | 1 to 10 | > 1 | Cc1c(COc2ccc3c(c2)CCC(OCC(=O)O)C3)cccc1C(F)(F)F (stereo not drawn) [Compound 200, 2-[6-[[2-methyl-3-(trifluoromethyl)phenyl]methoxy]tetralin-2-yl]oxyacetic acid] |
| > 1 | 1 to 10 | > 1 | CSc1ccc(COc2ccc3c(c2)CCC(OCC(=O)O)C3)cc1 (stereo not drawn) [Compound 201, 2-[6-[(4-methylsulfanylphenyl)methoxy]tetralin-2-yl]oxyacetic acid] |
| > 1 | 1 to 10 | > 1 | O=C(O)COC1CCc2cc(OCc3ccc(OC(F)(F)F)cc3)ccc2C1 (stereo not drawn) [Compound 203, 2-[6-[[4-(trifluoromethoxy)phenyl]methoxy]tetralin-2-yl]oxyacetic acid] |
| > 1 | 1 to 10 | > 1 | O=C(O)COC1CCc2cc(OCc3cccc(F)c3F)ccc2C1 (stereo not drawn) [Compound 204, 2-[6-[(2,3-difluorophenyl)methoxy]tetralin-2-yl]oxyacetic acid] |
| > 1 | 0.1 to 1 | > 1 | O=C(O)COC1CCc2cc(OCc3cccc(Cl)c3)ccc2C1 (stereo not drawn) [Compound 205, 2-[6-[(3-chlorophenyl)methoxy]tetralin-2-yl]oxyacetic acid] |
| > 1 | 1 to 10 | > 1 | O=C(O)COC1CCc2cc(OCc3ccccc3Cl)ccc2C1 (stereo not drawn) [Compound 206, 2-[6-[(2-chlorophenyl)methoxy]tetralin-2-yl]oxyacetic acid] |
| > 1 | 0.1 to 1 | > 1 | O=C(O)COC1CCc2cc(OCc3ccccc3OC(F)(F)F)ccc2C1 (stereo not drawn) [Compound 208, 2-[6-[[2-(trifluoromethoxy)phenyl]methoxy]tetralin-2-yl]oxyacetic] |
| > 1 | 1 to 10 | > 1 | O=C(O)COC1CCc2cc(OCc3ccc(Cl)cc3)ccc2C1 (stereo not drawn) [Compound 209, 2-[6-[(4-chlorophenyl)methoxy]tetralin-2-yl]oxyacetic acid] |
| > 1 | 1 to 10 | > 1 | O=C(O)COC1CCc2cc(OCc3ccc(F)c(F)c3)ccc2C1 (stereo not drawn) [Compound 212, 2-[6-[(3,4-difluorophenyl)methoxy]tetralin-2-yl]oxyacetic acid] |
| > 1 | 1 to 10 | > 1 | O=C(O)COC1CCc2cc(OCc3ccc(F)cc3)ccc2C1 (stereo not drawn) [Compound 214, 2-[6-[(4-fluorophenyl)methoxy]tetralin-2-yl]oxyacetic acid] |
